Experimental data as given in PMC7251097, “Aspartate/asparagine-β-hydroxylase: a high-throughput mass spectrometric assay for discovery of small molecule inhibitors” (Scientific Reports, 2020).
Structures can show the parent of a compound that is named as a salt. Where two headings read alike, the source gives them in different places. Residues, ends and D or L forms follow the SMILES beside them. *: point of attachment. Cbz = O=C(OCc1ccccc1)*

Target: T1, His6-AspH315–758 (human aspartate/asparagine-β-hydroxylase, AspH) (Homo sapiens, UniProt Q12797)
T1 construct: N-Terminally His6-tagged human AspH315–758 (His6-AspH315–758) was produced in E. coli BL21 (DE3) cells; made in house; host or cells: E. coli BL21 (DE3), pET-28a(+) vector
T1 sequence (Q12797 315-758): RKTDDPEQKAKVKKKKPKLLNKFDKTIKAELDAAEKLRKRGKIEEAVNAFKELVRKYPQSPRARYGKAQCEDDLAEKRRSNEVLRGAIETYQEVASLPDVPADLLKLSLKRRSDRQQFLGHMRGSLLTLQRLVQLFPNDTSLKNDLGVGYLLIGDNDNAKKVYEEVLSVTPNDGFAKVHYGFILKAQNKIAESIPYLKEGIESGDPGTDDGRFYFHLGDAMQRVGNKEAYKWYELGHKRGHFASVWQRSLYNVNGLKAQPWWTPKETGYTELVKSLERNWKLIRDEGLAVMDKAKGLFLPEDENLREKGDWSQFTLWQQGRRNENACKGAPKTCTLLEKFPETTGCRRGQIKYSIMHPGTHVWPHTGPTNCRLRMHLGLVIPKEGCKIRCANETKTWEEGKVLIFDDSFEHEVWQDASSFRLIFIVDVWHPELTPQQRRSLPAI
Experiment: SPE-MS AspH inhibition assay (LOPAC screen at fixed 20 μM and IC50 dose-response), hydroxylation of cyclic peptide hFX-CP101–119
Assay type: biochemical
Conditions: for Plate 1 (% inhibition): plate 1, normalised to DMSO and 2,4-PDCA controls; for inhibition at 20 µM: read-out: Plate 2 (% inhibition)

[1] = LOPAC Plate 4, compound at 20 uM, substrate conversion
[2] = LOPAC compound at 20uM, plate 3, conversion of substrate peptide
[3] = LOPAC compound at fixed 20 uM, substrate conversion, plate 1
[4] = LOPAC compound at 20uM, plate 2, conversion of substrate peptide
[5] = LOPAC compound at 20uM, plate 2, normalised to DMSO and 2,4-PDCA controls

Cc1ccc(S(=O)(=O)NC(=O)NN2CCCCCC2)cc1 [Tolazamide]
% conversion [1]: 36.66%

Clc1cnc(Oc2ccc(Oc3ncc(Cl)cc3Cl)cc2)c(Cl)c1 [TCPOBOP]
% conversion: 30.30%

CO[C@H]1C[C@@H]2CC[C@@H](C)[C@@](O)(O2)C(=O)C(=O)N2CCCC[C@H]2C(=O)O[C@H]([C@H](C)C[C@@H]2CC[C@@H](OC(=O)C(C)(CO)CO)[C@H](OC)C2)CC(=O)[C@H](C)/C=C(\C)[C@@H](O)[C@@H](OC)C(=O)[C@H](C)C[C@H](C)/C=C/C=C/C=C/1C [Temsirolimus]
Plate 5 (% inhibition) (plate 5 (Pfitzer), test compounds at fixed 20 μM): 52.39%
Plate 5 (% conversion) (plate 5 (Pfitzer), test compounds at fixed 20 μM, mean conversion DMSO 32.88): 18.48%

CC(C)[C@H](NC(=O)OCc1ccccc1)C(=O)N[C@H](C=O)Cc1ccccc1 [MDL 28170] (Cbz-Val-Phe-aldehyde)
Plate 3 (% conversion) [2]: 33.83%

Cl.NCCS [Cysteamine hydrochloride]
Plate 3 (% conversion) [2]: 40.01%

COc1cc(/C=C(\C#N)C(=O)Nc2nnc(C(F)(F)F)s2)ccc1OCc1ccc(C(F)(F)F)cc1C(F)(F)F [XCT790]
% conversion [1]: 22.43%

Clc1cccc(Cl)c1N=C1NCCN1 [Clonidine hydrochloride]
Plate 1 (% inhibition) (LOPAC compound at fixed 20 uM): -13.86%
Plate 1 (% conversion) [3]: 40.53%

CCC1(C2=NCCN2)Cc2ccccc2O1 (stereo not shown) [Efaroxan hydrochloride]
Plate 2 (% conversion) [4]: 34.90%
inhibition at 20 µM [5]: 3.14%

Cl.Nc1ccn([C@@H]2O[C@H](CO)[C@@H](O)[C@@H]2O)c(=O)n1
Plate 1 (% inhibition) (LOPAC compound at fixed 20 uM): -2.68%
Plate 1 (% conversion) [3]: 36.77%

N[C@@H](Cc1ccc(O)c(I)c1)C(=O)O [3-Iodo-L-tyrosine]
Plate 3 (% conversion) [2]: 30.44%

NCCCCCCCCCCN [1,10-Diaminodecane]
Plate 2 (% conversion) [4]: 36.39%
inhibition at 20 µM [5]: -1.3%

COc1ccc2[nH]c3c(c2c1)CCNC3
Plate 1 (% conversion): 36.98%
Plate 1 (% inhibition) (LOPAC compound at fixed 20 uM): -3.29%

Cl.c1ccc2nc(C3=NCCN3)ccc2c1 [BU224 hydrochloride]
Plate 1 (% inhibition) (LOPAC compound at fixed 20 uM): -5.25%
Plate 1 (% conversion) [3]: 37.63%

N[C@@H](CCC(=O)N[C@@H](CSN=O)C(=O)NCC(=O)O)C(=O)O [S-Nitrosoglutathione]
Plate 3 (% conversion) [2]: 32.88%

Cl.Cl.Cn1cnc(CCN)c1 [1-Methylhistamine dihydrochloride]
Plate 3 (% conversion): 37.48%

C[C@@]12N[C@@H](Cc3ccccc31)c1ccccc12.O=C(O)/C=C\C(=O)O [(-)-MK-801 hydrogen maleate]
Plate 3 (% conversion): 36.17%

CN1C[C@H](CNC(=O)OCc2ccccc2)C[C@@H]2c3cccc4c3c(cn4C)C[C@H]21 [Metergoline]
Plate 3 (% conversion) [2]: 47.43%

CC[N+](C)(C)c1cccc(O)c1 [Edrophonium chloride]
Plate 2 (% conversion): 37.54%
inhibition at 20 µM: -4.75%

CO[C@H]1O[C@@H]2O[C@@]3(C)CC[C@H]4[C@H](C)CC[C@@H]([C@H]1C)[C@@]24OO3 [Artemether]
Plate 1 (% inhibition) (LOPAC compound at fixed 20 uM): -9.16%
Plate 1 (% conversion) [3]: 38.95%

CC(N)c1cccc(Cl)c1Cl.Cl (racemic)
Plate 2 (% conversion): 38.94%
Plate 2 (% inhibition) (20 µM): -8.91%

CCCCS(=O)(=O)N[C@@H](Cc1ccc(OCCCCC2CCNCC2)cc1)C(=O)O [Tirofiban hydrochloride monohydrate]
% conversion [1]: 29.35%

CNCCc1cnc(CCC(c2ccccc2)c2ccccc2)[nH]1.O=C(O)C(=O)O.O=C(O)C(=O)O [N-Methylhistaprodifen dioxalate salt]
Plate 2 (% conversion) [4]: 8.76%
Plate 2 (% inhibition) [5]: 81.23%

Cc1cc2c(C(C)C)c(O)c(O)c(C=O)c2c(O)c1-c1c(C)cc2c(C(C)C)c(O)c(O)c(C=O)c2c1O [Gossypol]
Plate 3 (% conversion): 4.73%
